The test system of this experiment is L1210 leukemia ip in BDF1 mice, survival T/C. Nature of the experiment: NCI In Vivo Anticancer Drug Screen. Data for tumor model L1210 Leukemia (intraperitoneal) in B6D2F1 (BDF1) mice. The note with it: endpoint: mean survival time, higher = longer survival. The essentials:
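Read-out is survival time, reported as the treated-group measurement over the vehicle-control measurement.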

The mark [1] stands for this setting: dose: 100.0 mg/kg/injection, schedule: Q01DX001 (ip), vehicle: Klucel (hydroxypropylcellulose) (HPC).
The mark [2] stands for this setting: dose: 100.0 mg/kg/injection, schedule: Q01DX009 (ip), vehicle: Klucel (hydroxypropylcellulose) (HPC).
The mark [3] stands for this setting: dose: 100.0 mg/kg/injection, schedule: Q04DX002 (ip), vehicle: Klucel (hydroxypropylcellulose) (HPC).
Setting [4] is: dose: 100.0 mg/kg/injection, schedule: Q04DX003 (ip), vehicle: Klucel (hydroxypropylcellulose) (HPC).
[5] abbreviates: dose: 200.0 mg/kg/injection, schedule: Q01DX001 (ip), vehicle: Klucel (hydroxypropylcellulose) (HPC).
The mark [6] stands for this setting: dose: 200.0 mg/kg/injection, schedule: Q01DX009 (ip), vehicle: Klucel (hydroxypropylcellulose) (HPC).
Where [7] appears, read: dose: 200.0 mg/kg/injection, schedule: Q04DX002 (ip), vehicle: Klucel (hydroxypropylcellulose) (HPC).
Where [8] appears, read: dose: 200.0 mg/kg/injection, schedule: Q04DX003 (ip), vehicle: Klucel (hydroxypropylcellulose) (HPC).
Where [9] appears, read: dose: 400.0 mg/kg/injection, schedule: Q01DX001 (ip), vehicle: Klucel (hydroxypropylcellulose) (HPC).
Where [10] appears, read: dose: 400.0 mg/kg/injection, schedule: Q04DX002 (ip), vehicle: Klucel (hydroxypropylcellulose) (HPC).
Where [11] appears, read: dose: 400.0 mg/kg/injection, schedule: Q04DX003 (ip), vehicle: Klucel (hydroxypropylcellulose) (HPC).
The mark [12] stands for this setting: dose: 50.0 mg/kg/injection, schedule: Q01DX009 (ip), vehicle: saline with Tween-80.
[13] abbreviates: dose: 100.0 mg/kg/injection, schedule: Q01DX009 (ip), vehicle: saline with Tween-80.
Setting [14] is: dose: 200.0 mg/kg/injection, schedule: Q01DX009 (ip), vehicle: saline with Tween-80.
The mark [15] stands for this setting: dose: 100.0 mg/kg/injection, schedule: Q04DX003 (ip), vehicle: saline with Tween-80.
[16] abbreviates: dose: 200.0 mg/kg/injection, schedule: Q04DX003 (ip), vehicle: saline with Tween-80.
Setting [17] is: dose: 400.0 mg/kg/injection, schedule: Q04DX003 (ip), vehicle: saline with Tween-80.
Setting [18] is: dose: 100.0 mg/kg/injection, schedule: Q01DX001 (ip), vehicle: saline with Tween-80.
[19] abbreviates: dose: 200.0 mg/kg/injection, schedule: Q01DX001 (ip), vehicle: saline with Tween-80.
Setting [20] is: dose: 400.0 mg/kg/injection, schedule: Q01DX001 (ip), vehicle: saline with Tween-80.
The mark [21] stands for this setting: dose: 100.0 mg/kg/injection, schedule: Q04DX003 (ip), vehicle: saline.
The mark [22] stands for this setting: dose: 200.0 mg/kg/injection, schedule: Q04DX003 (ip), vehicle: saline.

Where “and” joins values, the source holds several entries; their conditions need not be identical. Equal entries are not always repeated. Toxic doses and inconclusive results are not listed.

As to `O=C(NC(=S)Nc1cccc(Cl)c1)c1cccc(Br)c1`, the T/C under setting [1] is 86 % of control; the T/C under setting [2] is 98 % of control and 90 % of control; the T/C under setting [3] was 91 % of control; the T/C under setting [4] was 108 % of control; the T/C under setting [5] was 117 % of control; the T/C under setting [6] was 98 % of control and 90 % of control. Further, the T/C is 93 % of control and 91 % of control under setting [7]; 107 % of control under setting [8]; 86 % of control under setting [9]; 87 % of control and 91 % of control (dose: 400.0 mg/kg/injection, schedule: Q01DX009 (ip), vehicle: Klucel (hydroxypropylcellulose) (HPC)); 93 % of control and 91 % of control under setting [10]; 96 % of control under setting [11].
On to `c1cc[c]([Sb]([c]2ccccc2)[n]2ccnc2)cc1`, for which the T/C (dose: 5.0 mg/kg/injection, schedule: Q04DX002 (ip), vehicle: saline with Tween-80) is 97 % of control and the T/C (dose: 10.0 mg/kg/injection, schedule: Q04DX002 (ip), vehicle: saline with Tween-80) is 97 % of control.
As for `CC(CNC1=NCCN1)c1cccc2ccccc12` (centres undefined), the T/C by setting is: (dose: 50.0 mg/kg/injection, schedule: Q01DX009 (ip), vehicle: Klucel (hydroxypropylcellulose) (HPC)) 111 % of control; under setting [2], 103 % of control; under setting [6], 108 % of control.
For the compound `O=C(O)C1=CC2(c3ccccc3)C(=O)C1(c1ccccc1)C1=C2c2cccc3cccc1c23` (centres undefined), the T/C is 93 % of control under setting [12], 93 % of control under setting [13] and 93 % of control under setting [14].
As to `N#Cc1c(O)c(Cl)c(Cl)c(O)c1C#N`, the T/C by setting is: under setting [4], 109 % of control; under setting [8], 96 % of control; under setting [11], 96 % of control.
As for `COc1ccc(COC(=O)Oc2ccc(Cl)cc2)cc1OC`, the T/C is, setting by setting: under setting [15], 96 % of control; under setting [16], 96 % of control; under setting [17], 101 % of control.
Regarding `O=C(Nc1ccc(C2=NCCCN2)cc1)N1CCN(C(=O)Nc2ccc(C3=NCCCN3)cc2)CC1`, the T/C runs as follows: (dose: 10.0 mg/kg/injection, schedule: Q01DX Z (ip), vehicle: water) 106 % of control; (dose: 20.0 mg/kg/injection, schedule: Q01DX Z (ip), vehicle: water) 120 % of control.
In the case of `Nc1nc(SCC(=O)c2ccc(Cl)cc2)c2c(n1)SCC(c1ccc(Cl)cc1)=N2`, the T/C runs as follows: under setting [18], 97 % of control; under setting [19], 101 % of control; under setting [20], 92 % of control.
In the case of `CN(C)N=Nc1ccc([N+](=O)[O-])cc1C(N)=O`, the T/C reads like this: under setting [18], 117 % of control; (dose: 100.0 mg/kg/injection, schedule: Q01DX007 (ip), vehicle: saline with Tween-80) 124 % of control; under setting [15], 108 % of control; (dose: 180.0 mg/kg/injection, schedule: Q01DX009 (ip), vehicle: saline with Tween-80) 170 % of control; under setting [19], 104 % of control; under setting [16], 105 % of control. In addition, the T/C was 167 % of control (dose: 268.0 mg/kg/injection, schedule: Q01DX009 (ip), vehicle: saline with Tween-80); 108 % of control under setting [20]; 154 % of control (dose: 400.0 mg/kg/injection, schedule: Q01DX007 (ip), vehicle: saline with Tween-80); 122 % of control (dose: 400.0 mg/kg/injection, schedule: Q01DX009 (ip), vehicle: saline with Tween-80); 117 % of control under setting [17]; 90 % of control (dose: 600.0 mg/kg/injection, schedule: Q01DX009 (ip), vehicle: saline with Tween-80).
Consider `O=C1NC(c2cccc(Cl)c2)N2C(=O)NC(c3cccc(Cl)c3)N12` (centres undefined), for which the T/C is 93 % of control (dose: 100.0 mg/kg/injection, schedule: Q01DX009 (ip), vehicle: gum acacia); 92 % of control (dose: 100.0 mg/kg/injection, schedule: Q04DX003 (ip), vehicle: gum acacia); 103 % of control (dose: 200.0 mg/kg/injection, schedule: Q04DX003 (ip), vehicle: gum acacia); 90 % of control (dose: 400.0 mg/kg/injection, schedule: Q01DX009 (ip), vehicle: gum acacia); 92 % of control (dose: 400.0 mg/kg/injection, schedule: Q04DX003 (ip), vehicle: gum acacia).
In the case of `CCOC(=O)NC(=O)NC(=O)OCC`, the T/C is, setting by setting: (dose: 75.0 mg/kg/injection, schedule: Q01DX009 (ip), vehicle: saline sonified) 92 % of control; under setting [21], 107 % of control; (dose: 150.0 mg/kg/injection, schedule: Q01DX009 (ip), vehicle: saline sonified) 94 % of control; under setting [22], 119 % of control; (dose: 300.0 mg/kg/injection, schedule: Q01DX009 (ip), vehicle: saline sonified) 96 % of control; (dose: 400.0 mg/kg/injection, schedule: Q04DX003 (ip), vehicle: saline) 104 % of control.
In the case of `CCOC(=O)C1C=CCCC1` (centres undefined), the T/C reads like this: under setting [15], 91 % of control; under setting [16], 102 % of control; under setting [17], 94 % of control.
Regarding `CCOC(=O)C(=O)N(CC)CC`, the T/C by setting is: under setting [3], 98 % of control; under setting [7], 98 % of control; under setting [10], 88 % of control.
In the case of `FC(F)(F)c1nc2nc(Br)c(Br)nc2[nH]1`, the T/C reads like this: under setting [12], 108 % of control; under setting [13], 89 % of control; under setting [15], 109 % of control and 110 % of control and 111 % of control; under setting [14], 98 % of control; under setting [16], 102 % of control and 115 % of control.
For the compound `COC1OC(CBr)C(Br)C(OC(=O)c2ccccc2)C1OC(=O)c1ccccc1` (centres undefined), the T/C is, setting by setting: (dose: 75.0 mg/kg/injection, schedule: Q04DX002 (ip), vehicle: Klucel (hydroxypropylcellulose) (HPC)) 103 % of control; (dose: 150.0 mg/kg/injection, schedule: Q04DX002 (ip), vehicle: Klucel (hydroxypropylcellulose) (HPC)) 98 % of control; (dose: 300.0 mg/kg/injection, schedule: Q04DX002 (ip), vehicle: Klucel (hydroxypropylcellulose) (HPC)) 98 % of control.
Take `Oc1ccccc1-c1nc2cc(Cl)ccc2o1`: the T/C is, setting by setting: under setting [3], 97 % of control; under setting [7], 97 % of control; under setting [10], 101 % of control.
With `COc1ccc(CCN(C)C(C)C2C3CC4CC(C3)CC2C4)cc1OC` (centres undefined), the T/C under setting [21] was 101 % of control and the T/C under setting [22] was 94 % of control.
For the compound `C/C=C/C=C\COC(=O)C(C)C`, the T/C (dose: 100.0 mg/kg/injection, schedule: Q04DX002 (ip), vehicle: saline) was 103 % of control; the T/C (dose: 200.0 mg/kg/injection, schedule: Q04DX002 (ip), vehicle: saline) was 96 % of control; the T/C (dose: 400.0 mg/kg/injection, schedule: Q04DX002 (ip), vehicle: saline) was 114 % of control.
As to `O=C(Nc1ccccc1)C1C2C=CC(CC2)C1C(=O)Nc1ccccc1` (centres undefined), the T/C under setting [15] was 98 % of control, the T/C under setting [16] is 107 % of control and the T/C under setting [17] is 98 % of control.
On to `O=C1C(Cl)=C(N2CC2)C(=O)C(Cl)=C1N1CC1`, for which the T/C (dose: 0.31 mg/kg/injection, schedule: Q01DX009 (ip), vehicle: alcohol) is 106 % of control; the T/C (dose: 0.62 mg/kg/injection, schedule: Q01DX009 (ip), vehicle: alcohol) was 112 % of control; the T/C (dose: 1.25 mg/kg/injection, schedule: Q01DX009 (ip), vehicle: alcohol) is 106 % of control; the T/C (dose: 1.25 mg/kg/injection, schedule: Q01DX009 (ip), vehicle: saline) is 113 % of control; the T/C (dose: 2.5 mg/kg/injection, schedule: Q01DX009 (ip), vehicle: alcohol) is 112 % of control; the T/C (dose: 5.0 mg/kg/injection, schedule: Q01DX009 (ip), vehicle: alcohol) was 118 % of control. Also, the T/C (dose: 10.0 mg/kg/injection, schedule: Q01DX009 (ip), vehicle: saline) was 114 % of control.
`Cc1cc(=O)[nH]c2c1CCCCC2`: the T/C by setting is: under setting [1], 98 % of control; under setting [5], 96 % of control; under setting [9], 96 % of control.
